{"source": "patent US8986687B2", "about": "“Compounds inhibiting CD95 signaling for the treatment of pancreatic cancer” (Deutsches Krebsforschungszentrum, priority 2009, dated 2015)", "tested_on": "ERK pathway / phosphorylation of ERK", "assay": "Western blotting of ERK phosphorylation in pancreatic cells", "format": "cell-based", "settings": "PANC1 and Colo357 cells", "source_text": "Phosphorylation of AKT and ERK is shown in PanD3, PANC1 and Colo357 cells upon treatment with different concentrations of CD95L-T4 at the indicated time points. P: phosphorylated; T: total.\nA) Effect of the PI3K and MEK inhibitors (LY2940092 and PD98059 respectively) on CD95-induced phosphorylation of AKT and ERK is shown in PANC1 and Colo357. Inhibition of PI3K enhances ERK phosphorylation. P: phosphorylated; T: total.\nIt has been known that low concentrations of CD95L are sufficient to efficiently stimulate the non-apoptotic pathways downstream of CD95, being those pathways inhibited by higher concentrations. […]\nKnockdown experiments were performed by transient transfection with Lipofectamine 2000™ (Invitrogen Life Technologies) following the instruction manual. […] After transient transfection with the different siRNAs cells were cultured for 72 h before treated with CD95LT4 (20 ng/ml), migration was analyzed 36 h after treatment with a two dimensional migration assay. Knockdown efficiency was controlled by quantitative real-time PCR.\nProteins were transferred from polyacrylamide gels to nitrocellulose membranes by electroblotting. […] The HRP signal was detected by incubation with ECL solution and consecutive exposure to Amersham Hyperfim X-ray films Protein extraction and immunoblotting was performed as previously described. […]", "data": [{"smiles": "O=c1cc(N2CCOCC2)oc2c(-c3ccccc3)cccc12", "note": "[LY2940092]", "values": [{"measurement": "effect of PI3K inhibition on CD95-induced ERK phosphorylation", "result": "enhances"}]}]}
